Experimental data taken from patent publication US6528516B1, “Methods for reducing intraocular pressure using A3 adenosine receptor antagonists” (Trustees of the University of Pennsylvania, The Center for …, priority 1998, dated 2003).
“Also recorded” adds a separate entry of the source. Where two headings read alike, the source gives them in different places.

Columns and labels:
[1] = test system: bovine pigmented ciliary epithelial (PE) cells; experiment: Cell volume (shrinkage) of PE cells in isoosmotic suspension, Coulter Counter; assay type: cell-based
[2] = test system: bovine PE cells, Cl− currents; experiment: Ruptured-patch whole-cell recording of PE cells; assay type: cell-based
Text: Harvested cultured PE cells were resuspended and permitted to settle and attach to glass coverslips, which were then transferred to a perfusion chamber (Carré et al., supra., 1997). Solutions were designed to isolate any Cl^- current activated by ATP. […] (Am. J. Physiol., 261:[…]-[…], 1991), as previously described (Carré et al., supra., 1997). Cells were patched while still round, usually one day after dissociation. […] Data were acquired at 1 kHz using Axopatch-1B electronics and associated headstage (Axon Instruments, Foster City, Calif.) and filtered at 500 Hz with a Bessel filter. The micropipettes were double-pulled from Corning No. 7052 glass, coated with Sylgard and fire polished. The membrane potential was held without series-resistance compensation at 0 mV and stepped to voltages over the range from -100 to +100 mV in 20 mV increments for 200 msec periods. The mean current measured between 150-200 msec was used to obtain the patch-clamp data used here. The data presented in FIG. 2 was obtained at -60 mV [the approximate membrane potential (Green et al., Invest. Ophthalmol. Vis. Sci., 26:371-381, 1985)] to facilitate comparison with the volumetric data.

[3] = target: T1, human A3 receptor (Homo sapiens, UniProt P0DMS8); experiment: Radioligand binding, [125I]AB-MECA, HEK-293 cell membranes; set-up: host or cells: HEK-293; details: read-out: Ki(hA3)
T1 sequence (P0DMS8 1-318): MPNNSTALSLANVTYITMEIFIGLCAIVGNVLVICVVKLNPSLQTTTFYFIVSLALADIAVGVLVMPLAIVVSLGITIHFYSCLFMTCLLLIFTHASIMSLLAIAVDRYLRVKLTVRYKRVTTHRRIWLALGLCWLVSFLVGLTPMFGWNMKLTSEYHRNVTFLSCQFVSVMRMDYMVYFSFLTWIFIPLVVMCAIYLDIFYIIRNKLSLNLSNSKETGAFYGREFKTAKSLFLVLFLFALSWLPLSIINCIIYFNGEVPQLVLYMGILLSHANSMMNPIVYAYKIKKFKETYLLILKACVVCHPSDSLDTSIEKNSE
Method: Natl. Acad. Sci. […] Natl. Acad. Sci. U.S.A. 89:7432-7436, 1992) was performed as described at 4° C. (Olah et al., Mol. Pharmacol. 45:978-982, 1994). The assay medium consisted of a buffer containing 10 mM Mg^2+, 50 mM Tris, 3 units/mL adenosine deaminase, and 1 mM EDTA, at pH 8.0 (4° C.). […] Incubations were terminated by rapid filtration over Whatman GF/B filters, using a Brandell cell harvester (Brandell, Gaithersburg, MD). The tubes were rinsed three times with 3 mL buffer each. At least five different concentrations of competitor, spanning 3 orders of magnitude adjusted appropriately for the IC50 of each compound, were used. IC50 values, calculated with the nonlinear regression method implemented in the InPlot program (Graph-PAD, San Diego, Calif.), were converted to apparent Ki values using the Cheng-Prusoff equation (Cheng et al., Biochem.

[4] = target: T2, A1 receptors (Rattus norvegicus, UniProt P25099); experiment: Radioligand binding, [3H]R-PIA, rat cerebral cortex membranes
T2 construct: A1 receptors from rat cerebral cortex membranes; from tissue; host or cells: rat cerebral cortex membranes
T2 sequence (P25099 1-326): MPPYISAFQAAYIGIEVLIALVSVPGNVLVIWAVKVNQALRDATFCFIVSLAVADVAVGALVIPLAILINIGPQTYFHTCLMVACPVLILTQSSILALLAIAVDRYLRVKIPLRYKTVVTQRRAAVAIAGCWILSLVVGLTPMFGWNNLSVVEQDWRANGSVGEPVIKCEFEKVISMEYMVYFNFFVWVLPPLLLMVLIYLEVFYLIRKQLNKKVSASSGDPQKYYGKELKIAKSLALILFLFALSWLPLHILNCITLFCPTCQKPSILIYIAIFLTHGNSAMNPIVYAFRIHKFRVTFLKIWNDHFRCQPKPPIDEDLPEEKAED
Method: Radioligand binding studies. Binding of [^3H]R-N^6-phenylisopropyladenosine ([^3H]R-PIA) to A1 receptors from rat cerebral cortex membranes and of [^3H]-2-[4-[(2-carboxyethyl)phenyl]ethylamino]-5′-N-ethylcarbamoyladenosine ([^3H]CGS 21680) to A2A receptors from rat striatal membranes was performed as described previously (Schwabe et al., Naunyn Schmiedeberg Arch. Pharmacol. 313:179-187, 1980; Jarvis et al., J. Pharmacol. Exp. Ther. 251:888-893, 1989) Adenosine deaminase (3 units/mL) was present during the preparation of the brain membranes, in a pre-incubation of 30 min at 30° C., and during the incubation with the radioligands. Nonspecific binding was determined in the presence of 10 μM (A1 receptors) or 20 μM (A2A receptors)2-chloroadenosine.
All non-radioactive compounds were initially dissolved in DMSO, and diluted with buffer to the final concentration, where the amount of DMSO never exceeded 1%. Incubations were terminated by rapid filtration over Whatman GF/B filters, using a Brandell cell harvester (Brandell, Gaithersburg, MD). The tubes were rinsed three times with 3 mL buffer each.
At least five different concentrations of competitor, spanning 3 orders of magnitude adjusted appropriately for the IC50 of each compound, were used.

[5] = target: human A2 receptors; details: read-out: Ki for binding to human A2 receptors; cited from earlier work
[6] = target: T1, human A3 receptor; details: read-out: Ki for binding to human A3 receptors; cited from earlier work
[7] = test system: HCE (human ciliary epithelial) cell line, NPE cells; experiment: Cell volume (shrinkage) of NPE cells in isosmotic solution, Coulter Counter, 5 μM gramicidin; assay type: cell-based; details: 300 nM MRS-1097, 100 nM MRS-1191, 100 nM MRS-1523, 10 μM adenosine
Method: A 0.5-ml aliquot of the HCE cell suspension in DMEM was added to 20 ml of each test solution, which contained (in mM): 110.0 NaCl, 15.0HEPES [4-(2-hydroxyethyl)-1-piperazineethanesulfonic acid], 2.5 CaCl2, 1.2 MgCl2, 4.7 KCl, 1.2 KH2PO4, 30.0 NaHCO3, and 10.0 glucose, at a pH of 7.4 and osmolality of 298-305 mOsm. Parallel aliquots of cells were studied on the same day. One aliquot usually served as a control, and the others were exposed to different experimental conditions at the time of suspension. The same amount of solvent vehicle (dimethylformamide, DMSO or ethanol) was always added to the control and experimental aliquots. The sequence of studying the suspensions was varied to preclude systematic time-dependent artifacts (Civan et al., Exp. Eye Res. 54:181-191, 1992).
Cell volumes of isosmotic suspensions were measured with a Coulter Counter (model ZBI-Channelyzer II), using a 100-μm aperture (Civan et al., supra., 1994). As previously described (Wax et al., supra., 1993), the cell volume (vC) of the suspension was taken as the peak of the distribution function. Cell shrinkage was fit as a function of time (t) to a monoexponential function:
vC=v∞+(v0−v∞)−[e^−(t−t^0^)/τ] {1}
where v∞ is the steady-state cell volume, v0 is the cell volume at the first point (t0) of the time course to be fit, and τ is the time constant of the shrinkage. For purposes of data reduction, the data were normalized to the first time point, taken to be 100% isotonic volume. Fits were obtained by nonlinear least-squares regression analysis, permitting both v∞and τ to be variables.
In order to differentiate among these receptors, the experiments were repeated in the present study using a series of agonists and antagonists selective for these receptors. As we wished to identify the effects of these receptors specifically on Cl^− channels, 5 μM gramicidin D was included in all solutions to eliminate any potential contribution from K^+ channels. This ionophore readily partitions into plasma membranes to form a cation-selective pore, and is widely used for studying volume regulation (Hoffmann et al., in Interaction of Cell Volume and Cell Function, Lang et al., eds., Springer, Heidelberg, Germany, pp. 188-248, (ACEP Series 14), 1993)). Under these conditions, release of cell Cl^− becomes the rate-limiting factor in both hypo-(Civan et al., Exp. Eye Res. 54:181-191, 1992) and isoosmotic cell shrinkage (Carre et al., supra., 1997).

[8] = test system: HCE (human ciliary epithelial) cell line, NPE cells; details: read-out: EC50 for isoosmotic shrinkage of cultured human NPE cells; cited from earlier work
[9] = Water solubility; assay type: physicochemical; details: room temperature
Method: 100 μL of de-ionized water was saturated with 5 mg 11 with heating. After cooling to room temperature and the disappearance of turbidity, 50 μL of the clear supernatant was withdrawn and lyophilized to give 1.1 mg of 11.

[10] = target: T1, human A3 receptor; experiment: Adenylate cyclase assay, CHO cell membranes, forskolin stimulated; assay type: biochemical

For O=C(O)c1cc([N+](=O)[O-])ccc1NCCCc1ccccc1 [NPPB, 5-nitro-2-(3-phenylpropylamino)-benzoate], the “effect of Cl− channel blocker on ATP, tamoxifen-activated shrinkage” value ([1]; DIDS 500 μM, NPPB 100 μM) was “inhibited the volume reduction; also recorded: abolished the synergistic shrinkage”, the “reduction of the ATP-enhanced currents” value ([2]; 100 μM NPPB, −60 mV) was 56±11% and the “effect of NPPB on ATP-stimulated current” value ([2]; FIG. 9B) was “partially inhibited”.
For Nc1ncnc2c1ncn2[C@@H]1O[C@H](COP(=O)(O)OP(=O)(O)OP(=O)(O)O)[C@@H](O)[C@H]1O [ATP], the “steady-state cell volume (v∞)” value ([1]; 3 μM ATP alone, FIG. 8B) was 98.0±0.4%, the “time constant of the shrinkage (τ)” value ([1]; 3 μM ATP alone, FIG. 8B) was 10.8 ± 4.9 min and the “steady-state cell volume (v∞)” value ([1]; 10 μM ATP alone, FIG. 8A) was 94.3±0.3%. For the same compound, the “time constant of the shrinkage (τ)” value ([1]; 10 μM ATP alone, FIG. 8A) was 2.8 ± 0.7 min, the “steady-state cell volume (v∞)” value ([1]; 10 μM ATP alone, FIG. 8B) was 97.2±0.3% and the “time constant of the shrinkage (τ)” value ([1]; 10 μM ATP alone, FIG. 8B) was 1.6 ± 1.0 min. The “steady-state cell volume (v∞)” value ([1]; 10 μM ATP alone, FIG. 10A) was 97.2±0.3%, the “time constant of the shrinkage (τ)” value ([1]; 10 μM ATP alone, FIG. 10A) was 1.6 ± 1.0 min and the “steady-state cell volume (v∞)” value ([1]; 100 μM ATP alone, FIG. 8A) was 94.3±0.3%. For the same compound, the “time constant of the shrinkage (τ)” value ([1]; 100 μM ATP alone, FIG. 8A) was 2.8 ± 0.7 min, the “steady-state cell volume (v∞)” value ([1]; 100 μM ATP alone, FIG. 13A) was 94.9±1.0% and the “time constant of the shrinkage (τ)” value ([1]; 100 μM ATP alone, FIG. 13A) was 45.2 ± 14.0 min. The “steady-state cell volume (v∞)” value ([1]; 100 μM ATP alone, FIG. 13B) was 87.5±1.8%, the “time constant of the shrinkage (τ)” value ([1]; 100 μM ATP alone, FIG. 13B) was 45.2 ± 14.0 min and the “steady-state cell volume (v∞)” value ([1]; 100 μM ATP alone, FIG. 13C) was 93.9±1.7%. For the same compound, the “time constant of the shrinkage (τ)” value ([1]; 100 μM ATP alone, FIG. 13C) was 34.8 ± 13.8 min, the “steady-state cell volume (v∞)” value ([1]; 100 μM ATP alone, FIG. 14B) was 96.8±0.5% and the “time constant of the shrinkage (τ)” value ([1]; 100 μM ATP alone, FIG. 14B) was 8.3 ± 3.7 min. The “steady-state cell volume (v∞)” value ([1]; 10 mM ATP alone, FIG. 10A) was 97.7±0.2%, the “time constant of the shrinkage (τ)” value ([1]; 10 mM ATP alone, FIG. 10A) was 2.2 ± 0.8 min and the “share of volumetric studies in which ATP alone produced shrinkage” value ([1]; ATP alone) was “approximately 15%”. The EC50 ([1]; in the presence of tamoxifen, read-out: ATP concentration eliciting approximately half-maximal response) was about 3000 nM, the “effect of ATP on whole-cell current” value ([2]; 1 mM ATP, holding potential −60 mV, cultured bovine PE cell) was “reversible and reproducible increases in inward current” and the “trials with current activated by ATP” value ([2]; cultured PE cells) was 10/17. For the same compound, the “trials with current activated by ATP” value ([2]; fresh bovine PE cells) was 3/9.
With CCOC(=O)c1c(CC)c(C(=O)SCC)c(CC)[n+](C)c1C1CCCC1 [Compound 23, 1-Methyl-2,4-diethyl-3-(ethylsulfanylcarbonyl)-5-ethyloxycarbonyl-6-cyclopentylpyridinium Iodide] the Ki [3] was 695 nM and the Ki [4] was 11.5 µM.
For CCCOC(=O)c1c(-c2ccccc2)nc(CC)c(C(=O)SCC)c1CCC [MRS-1523], the Ki [5] is listed as 2050 nM, the Ki [6] is listed as 19 nM and the “effect of A3 antagonist on adenosine-stimulated isotonic shrinkage” value [7] is listed as “prevented the characteristic shrinkage”. The “effect of A3 antagonist on adenosine-stimulated isotonic shrinkage” value ([7]; listed as MRS 1523) was “eliminated the actions of adenosine; also recorded: blocked the shrinkage”.
In the case of Nc1ncnc2c1ncn2[C@@H]1O[C@H](CO)[C@@H](O)[C@H]1O [adenosine], the EC50 [8] is given as 3 to 10 µM.
For CCOC(=O)C1=C(C2CCCC2)N(C)C(CC)=C(C(=O)SCC)C1CC (stereo not shown) [Compound 25, 1-Methyl-2,4-diethyl-3-(ethylsulfanylcarbonyl)-5-ethyloxycarbonyl-6-cyclopentyl-1,4-dihydropyridine], the Ki [3] was 6400 ± 780 nM and the “displacement at rat A1 receptors” value ([4]; at 100 μM) was 34 ±1%.
With CCOC(=O)c1c(CC)c(C(=O)SCC)c(CC)[n+](C)c1-c1ccccc1.[I-] [Compound 11, 1-Methyl-2,4-Diethyl-3-(ethylsulfanylcarbonyl)-5-ethyloxycarbonyl-6-phenylpyridinium Iodide] the solubility ([9]; de-ionized water, water, thermodynamic from solid) was 42.8 mM, the water solubility ([9]; listed as MRS 1649) was 43 mM and the “KB relative to the Ki value in binding to human A3 receptors” value [10] was “approximately 1.8 times”. The “shift of the IB-MECA concentration response curve to the right” value ([10]; 10 μM of 11) was 26 fold, the Kb ([10]; read-out: KB value (Schild analysis)) was 399 nM and the Ki [3] was 219 nM.
